# Assay results published in paper PMC7287671, “Anticancer Ruthenium Complexes with HDAC Isoform Selectivity” (Molecules, 2020).
# What was measured:
# [1] = target: T1, HDAC1 (Homo sapiens, UniProt Q13547); test: HDAC1 fluorimetric enzyme inhibition assay (BPS Bioscience kit); type: biochemical; details: for Percentage HDAC1 activity: activity relative to control with no added inhibitor
# T1 construct: FLAG; His; purchased BPS Bioscience
# Description: (§1) These isoforms were chosen as they provide contrasting binding topographies, and HDAC6 in particular is closely linked with cancer metastasis (Figure 2).
# (§2) 5. Enzyme Inhibition Assay
# (§3) HDAC enzyme inhibition assays were carried out for as stated using commercially available assay kits (BPS Bioscience ) and undertaken in a 96 well plate. All measurements were carried out in triplicate and standard deviation errors are included in the plots. Human recombinant enzymes HDAC1 FLAG-tag His-tag and HDAC6 GST-tag were used. Potential inhibitors were dosed at the required concentration […]
# (§4) NaCl, 2.7 mM KCl, 1 mM MgCl 2). A master mixture was made using assay buffer, acetylated substrate specific to HDAC enzyme (200 µM) and BSA (1 mg/mL) in a ratio of buffer:substrate:BSA (6:1:1) and 40 µL added to each well plate. Buffer (10 µL) was added to all blank wells and inhibitor (5 µL) was added to all potential inhibitor wells. HDAC enzymes were diluted based on their stated activity and 5 µL was added to all wells except blanks and the plate incubated at 37 °C for 30 min. Developer was added and the mixture incubated at room temperature for a further 15 min. Fluorescence was measured […]
# (§5) Percentage HDAC activity is […]
# (§6) determined by quantification of fluorescence relative to control, with no added inhibitor.
# (§7) IC 50 values are calculated using least squares regression fitting to equation S2, where Y = calculated HDAC activity at given concentration, X = concentration of inhibitor, a = gradient scaling factor and SP = saturation point (i.e. 100% activity). Errors calculated using the formula for standard […]
# (§8) Y = ୣ୶୮ (௔×(௑ିூ ఱబ)) × SP (S2)
# (§9) All assays carried out in […]
# [2] = tested on: MCF7 human breast adenocarcinoma cell line; test: Cell viability assay (ChemoMetec Via1-Cassette); type: cell-based; details: MCF7, 96 h, triplicate
# Description: viable cells. The experiments were carried out in triplicate.
# [3] = target: T2, HDAC6 (Homo sapiens, UniProt Q9UBN7); test: HDAC6 fluorimetric enzyme inhibition assay (BPS Bioscience kit); type: biochemical; details: for Percentage HDAC6 activity: activity relative to control with no added inhibitor
# T2 construct: GST; purchased BPS Bioscience
# T2 sequence (Q9UBN7 1-1215): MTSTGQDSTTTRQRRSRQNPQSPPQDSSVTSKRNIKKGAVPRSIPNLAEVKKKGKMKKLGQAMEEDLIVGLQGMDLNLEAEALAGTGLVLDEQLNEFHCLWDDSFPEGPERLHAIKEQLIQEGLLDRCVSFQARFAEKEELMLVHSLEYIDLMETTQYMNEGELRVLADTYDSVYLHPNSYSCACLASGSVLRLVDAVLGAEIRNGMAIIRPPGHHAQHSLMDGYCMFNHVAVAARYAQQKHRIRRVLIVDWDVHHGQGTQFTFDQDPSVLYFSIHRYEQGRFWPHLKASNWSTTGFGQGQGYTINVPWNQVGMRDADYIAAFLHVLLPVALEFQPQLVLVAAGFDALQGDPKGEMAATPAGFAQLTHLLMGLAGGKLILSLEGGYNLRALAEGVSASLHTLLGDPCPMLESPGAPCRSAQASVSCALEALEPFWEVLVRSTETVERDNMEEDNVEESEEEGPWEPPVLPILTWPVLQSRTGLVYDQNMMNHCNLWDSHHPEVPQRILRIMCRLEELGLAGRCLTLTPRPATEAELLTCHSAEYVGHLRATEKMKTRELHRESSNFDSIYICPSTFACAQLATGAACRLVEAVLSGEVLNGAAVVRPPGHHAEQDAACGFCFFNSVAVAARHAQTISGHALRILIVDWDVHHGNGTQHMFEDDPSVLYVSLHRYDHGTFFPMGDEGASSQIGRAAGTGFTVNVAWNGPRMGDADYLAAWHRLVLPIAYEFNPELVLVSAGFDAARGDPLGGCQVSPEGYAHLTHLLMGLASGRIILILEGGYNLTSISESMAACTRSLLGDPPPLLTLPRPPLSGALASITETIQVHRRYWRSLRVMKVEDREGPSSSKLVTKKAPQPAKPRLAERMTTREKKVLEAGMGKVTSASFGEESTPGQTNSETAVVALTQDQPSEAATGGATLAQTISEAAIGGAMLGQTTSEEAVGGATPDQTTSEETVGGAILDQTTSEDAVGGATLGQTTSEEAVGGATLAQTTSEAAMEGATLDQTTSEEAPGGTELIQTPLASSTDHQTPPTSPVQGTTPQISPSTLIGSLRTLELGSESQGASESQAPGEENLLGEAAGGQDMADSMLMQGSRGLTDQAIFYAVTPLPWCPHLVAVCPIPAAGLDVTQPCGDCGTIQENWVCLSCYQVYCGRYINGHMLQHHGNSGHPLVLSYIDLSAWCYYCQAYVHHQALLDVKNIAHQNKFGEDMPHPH
# Description: as §1, §2, §3, §4, §5, §6, §7, §8, §9
# T1 sequence (Q13547 whole entry): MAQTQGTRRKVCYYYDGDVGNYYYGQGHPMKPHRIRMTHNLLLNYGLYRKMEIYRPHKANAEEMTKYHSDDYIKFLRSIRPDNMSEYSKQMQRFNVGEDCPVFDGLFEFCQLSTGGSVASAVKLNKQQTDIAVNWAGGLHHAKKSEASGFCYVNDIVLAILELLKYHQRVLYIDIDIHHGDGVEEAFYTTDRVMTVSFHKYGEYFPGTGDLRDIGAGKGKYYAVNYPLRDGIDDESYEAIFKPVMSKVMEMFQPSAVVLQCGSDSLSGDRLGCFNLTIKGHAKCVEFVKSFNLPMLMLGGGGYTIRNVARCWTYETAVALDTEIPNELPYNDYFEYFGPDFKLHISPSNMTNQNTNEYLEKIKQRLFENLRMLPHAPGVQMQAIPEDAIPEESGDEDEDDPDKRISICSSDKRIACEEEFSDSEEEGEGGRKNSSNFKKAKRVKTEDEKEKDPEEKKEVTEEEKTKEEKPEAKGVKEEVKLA
"IC50 ([1]; human recombinant HDAC1 FLAG-tag His-tag, triplicate) [nM]",EC50 [2] [nM],"IC50 ([3]; human recombinant HDAC6 GST-tag, triplicate) [nM]",Selectivity Factor ([3]; ratio of the IC50 values for HDAC1 and HDAC6),Structure (SMILES),Percentage HDAC1 activity ([1]; 0.1 uM inhibitor) [%],Percentage HDAC1 activity ([1]; 1 uM inhibitor) [%],Percentage HDAC6 activity ([3]; 0.1 uM inhibitor) [%],Percentage HDAC6 activity ([3]; 1 uM inhibitor) [%]
105 ± 15,3000 ± 600,41 ± 2,2.6,O=C(CCCCCCC(=O)Nc1cc2cccnc2c2ncccc12)NO [L^1],44 ± 7,6 ± 13,17 ± 3,1.5 ± 1
–,–,–,–,"O=C(CCCCCCC(=O)Nc1ccccc1)NO [SAHA, suberanilohydroxamic acid, reference compound]",70 ± 15,12 ± 7,22 ± 1,4 ± 2
